# Data published in patent US6989390B2, “Amonafide salts” (priority 2002, dated 2006).
# Tests used:
# Experiment in all cases: Cytotoxic activity in vitro, percent net growth (SRB/MTT)
# Assay type in all cases: cell-based
# [1] = tested on: SF268 (Glioma); conditions: SF268, 48 hours
# Description: (§1) These cell lines are used by the National Cancer Institute: Developmental Therapeutics Branch in their preliminary screening process for antineoplastic agents. Subsequently, Amonafide Malate was tested against a larger panel of breast, lung and colon cell lines
# (§2) Cells were grown in RPMI 1640 medium containing 5% fetal bovine serum and 2 mM L-glutamine. Dependent upon cell doubling time, between 5,000 and 40,000 cells were inoculated into 96 well microtiter plates in a volume of 100 uL per well. The plates were incubated at 37° C., 5% CO2, 95% air, and 100% relative humidity for 24 hours prior to the addition of the experimental drug. After the, 24 hour incubation, two (2) plates of each cell line were fixed in situ with trichloroacetic acid (TCA) to establish the cell population at time of drug addition (Tz).
# (§3) Prior to use, the experimental drugs were solubilized in dimethyl sulfoxide at 400-fold the desired final maximum test concentration and frozen. At time of drug addition, an aliquot of frozen concentrate was thawed and diluted to twice the desired final maximum test concentration with complete medium containing 50 ug/ml gentamicin. An additional four (4) 10-fold or ½ log serial dilutions was made for a total of five (5) drug concentrations plus a control. An aliquot of 100 ul of each drug dilution was added to the appropriate well that already contains 100 ul of medium containing the cells. The plates were then incubated for 48 hours at 37° C., 5% CO2; 95% air and 100% relative humidity.
# (§4) The number of viable cells was estimated by either a SRB or MTT calorimetric assays.
# (§5) For SRB assay, cells were fixed in situ by the gentle addition of 50 ul cold (w/v) TCA (final concentration, 10% TCA) and incubated for 60 minutes at 4° C. The supernatant was discarded, plates washed five (5) times with tap water and air dried. Then Sulforhodamine B (SRB) solution (100 μl) at a 0.4% (w.v.) in 1% acetic acid was added to each well, and the plates incubated for 10 minutes at room temperature. Unbound dye was removed by washing five (5) times with 1% acetic acid and the plates were air dried. The bound stain was solubilized with 10 mM trizma base and the absorbance was read on an automated plate reader at a wavelength of 515 nm.
# (§6) The MTT assay measures the ability of viable cells to reduce a tetrazolium salt (MTT) to an insoluble form, a formazan salt. For MTT analysis 20 μl of MTT solution (5 mg/ml in PBS) was added to each well containing cells. The plate was incubated at 37° C. for 5 hours. Media was removed with needle and syringe. 200 μl of DMSO was added to each well and pipetted up and down to dissolve crystals. Plate was placed into a 37° C. incubator for 5 minutes to dissolve air bubbles. Absorbance was read on an automated plate reader at a wavelength of 550 nm.
# (§7) Percent net growth inhibition, as shown in FIGS. 2-7, was calculated using the seven absorbance measurements: absorbance by cells at time zero (Tz), absorbance by cells grown in the absence of drug (C), and absorbance of cells grown at the five drug concentrations (Ti). The following expression was used: % Net Growth=[(Ti−Tz)/(C−Tz)]×100 if Ti was greater than or equal to Tz. % Net Growth=[(Ti−Tz)/Tz]×100 if Ti was less than Tz.
# (§8) Using the plot of Percent Net Growth as a function of drug concentration, lethality concentration “50%” (LC50), total growth inhibition (TGI) and growth inhibition “50%” (GI50) were determined as follows.
# [2] = tested on: H460 (Non-Small Cell Lung Cancer); conditions: H460, 48 hours
# Description: as §1, §2, §3, §4, §5, §6, §7, §8
# [3] = tested on: MCF7 (Breast); conditions: MCF7, 48 hours
# Description: as §1, §2, §3, §4, §5, §6, §7, §8
# [4] = Percent Net Growth -50%, read-out: LC50 (the source's name)
smiles,measurement,setting,value
CN(C)CCN1C(=O)c2cccc3cc(N)cc(c23)C1=O.O=C(O)C[C@H](O)C(=O)O [Amonafide Malate],TGI,[1]; Percent Net Growth 0%,154 µM
same,GI50,[1]; Percent Net Growth 50%,7.7 µM
same,TGI,[2]; Percent Net Growth 0%,96 µM
same,GI50,[2]; Percent Net Growth 50%,4.11 µM
same,CC50,[2]; [4],170 µM
same,TGI,[3]; Percent Net Growth 0%,110 µM
same,GI50,[3]; Percent Net Growth 50%,5.16 µM
same,CC50,[3]; [4],662 µM
